Six compounds from patent US20260083750A1, “SMALL MOLECULE INHIBITORS OF KRAS PROTEINS” (MERCK SHARP & DOHME LLC, priority 2022, published 2026) can be followed below.

By IC50 is commonly meant the point on the concentration scale where inhibition reaches its midpoint.

Molecules are shown by their SMILES.

For assay [1], the target named is T1, KRAS-G12C (C51S/C80L/C118S) (Homo sapiens, UniProt P01116, C118S/C51S/C80L/G12C).
T1 construct: N-terminal biotin-acceptor peptide […]
The assay is described as follows: SOS-catalyzed nucleotide exchange assay (Procedure A, TR-FRET). The assay is classed as biochemical. The settings on record: 60 min preincubation, SOS + GTP, read-out: KRAS G12C GNE IC50. Put shortly:
(§1)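 Preformed biotinylated RAS–Bodipy-GDP/Tb-streptavidin complex preincubated with compound 60 min at room temperature, then SOS plus GTP (3 mM final) added. Exchange times: G13D 30 min, G12C/D 60 min, G12V 90 min. Final RAS/SOS: G12C 3 nM/40 nM, G12D 1 nM/40 nM, G12V 1.25 nM/160 nM, G13D 1.25 nM/0 nM. TR-FRET 520/495 ratio, four-parameter fit.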
(In general: Time-resolved FRET reads energy transfer from a long-lived donor to a nearby acceptor.)

The target of the next assay is T2, KRAS-G12D (Homo sapiens, UniProt P01116, G12D).
T2 construct: N-terminal biotin-acceptor peptide […]
T2 sequence (P01116 with tags, fused parts or gaps isoform P01116-2 G12D): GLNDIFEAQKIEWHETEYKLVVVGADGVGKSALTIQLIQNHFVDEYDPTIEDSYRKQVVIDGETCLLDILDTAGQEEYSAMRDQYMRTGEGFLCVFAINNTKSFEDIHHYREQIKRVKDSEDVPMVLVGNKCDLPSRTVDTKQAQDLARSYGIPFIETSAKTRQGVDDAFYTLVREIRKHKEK
The description is as above. The assay is classed as biochemical. The settings on record: 60 min preincubation, SOS + GTP, read-out: KRAS G12D GNE IC50. Put shortly:
as §1

Another assay concerns the target T3, KRAS-G12V (Homo sapiens, UniProt P01116, G12V).
T3 construct: N-terminal biotin-acceptor peptide […]
The description is as above. The assay is classed as biochemical. The conditions noted are these: 60 min preincubation, SOS + GTP, read-out: KRAS G12V GNE IC50. Put shortly:
as §1

The target in another assay is T4, KRAS-G13D (Homo sapiens, UniProt P01116, G13D).
T4 construct: N-terminal biotin-acceptor peptide […]
T4 sequence (P01116 with tags, fused parts or gaps isoform P01116-2 G13D): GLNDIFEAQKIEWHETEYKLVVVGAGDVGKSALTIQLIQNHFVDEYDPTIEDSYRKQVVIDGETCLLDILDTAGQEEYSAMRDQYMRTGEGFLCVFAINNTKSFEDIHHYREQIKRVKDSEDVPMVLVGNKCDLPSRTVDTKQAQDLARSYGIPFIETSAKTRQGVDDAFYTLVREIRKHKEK
The assay is described as above. The assay is classed as biochemical. The settings on record: 60 min preincubation, GTP, read-out: KRAS G13D GNE IC50. Summed up:
as §1

Another assay deals with HRAS (Homo sapiens, UniProt P01112). The description is as above. The assay is classed as biochemical. The settings on record: 60 min preincubation, SOS + GTP, read-out: HRAS GNE IC50. The source says:
(§2) Procedure for SOS-Catalyzed Nucleotide Exchange Assay for KRAS-G12C/D/V, G13D, HRAS, and NRAS (Procedure A)
(§3) Recombinant KRAS-G12C protein used in this assay has an additional triple mutation (C51S/C80L/C118S), whereas KRAS-G12D/V, G13D, HRAS and NRAS are in context of their WT protein sequence background. Specifically, the SOS-catalyzed nucleotide exchange assay utilizes a preformed TR-FRET complex containing a specific biotinylated RAS protein (KRAS-G12C/V/D, G13D, HRAS, NRAS; described above) with Bodipy-GDP, and Terbium-streptavidin. Compounds are preincubated with this complex for 60 minutes. Subsequently, recombinant human SOS protein and unlabeled GTP are added to initiate the exchange reaction. Small molecule inhibitors stabilize the Bodipy-GDP complex whereas the untreated protein rapidly exchanges Bodipy-GDP for unlabeled GTP resulting in reduced TR-FRET signal.
(§4) To assemble the preformed TR-FRET complexes, each biotinylated RAS protein is diluted to 2 μM in an EDTA Buffer (20 mM HEPES pH 7.5, 50 mM sodium chloride, 10 mM EDTA, and 0.01% Tween) and incubated at room temperature for one hour. This mixture is then further diluted to 90 nM in an Assay Buffer (20 mM HEPES pH 7.5, 150 mM sodium chloride, 10 mM magnesium chloride, and 0.005% Tween) containing 15 nM of Terbium-Streptavidin (Invitrogen, catalog #PV3577) and 900 nM of Bodipy-GDP (Invitrogen, catalog #G22360) and incubated at room temperature for six hours. It should be noted that this preformed TR-FRET complex for each of the RAS protein were made ahead of time, aliquoted and stored at −80° C. until the day of the experiment.
(§5) Each test compound (10 mM stock in DMSO) is diluted in DMSO to make a final-10-point, 3-fold dilution and is acoustically dispensed into a 384-well assay plate (Corning, catalog #3820) using an Echo 550 (Labcyte). Each well of the assay plate receives 3 μL of a specific 3× RAS preformed TR-FRET complex and 3 μL of Assay Buffer and is incubated at room temperature for 60 minutes (preincubation time). Each well then receives 3 μL of 3× recombinant human SOS protein and GTP (Sigma, G8877) in Assay Buffer and is incubated at room temperature for 30 minutes (G13D), 60 minutes (G12C/D, H/NRAS) or 90 minutes for G12V. The final reaction in each well of […] consists of 3 mM GTP, specific Ras and SOS proteins in the following concentrations: KRAS-G12C/SOS=3 nM/40 nM, KRAS-G12D/SOS=1 nM/40 nM, KRAS-G12V/SOS=1.25 nM/160 nM, KRAS-G13D/SOS=1.25 nM/0 nM, HRAS & NRAS=1.25 nM/40 nM.
(§6) The time-resolved fluorescence resonance energy transfer (TR-FRET) signal is measured on an Envision (PerkinElmer) plate reader: Excitation filter=340 nm; emission1=495 nm; emission2=520 nm; dichroic mirror=D400/D505; delay time=[…]. The signal of each well is determined as the ratio of the emission at 520 nm to that at 495 nm. Percent effect of each well is determined after normalization to control wells containing DMSO (no effect) or a saturating concentration of inhibitor (max effect). The apparent effect as a function of compound concentration is fit to a four-parameter logistic equation.

The next assay addresses NRAS (Homo sapiens, UniProt P01111). The assay is described as above. The assay is classed as biochemical. The conditions noted are these: 60 min preincubation, SOS + GTP, read-out: NRAS GNE IC50.
Excerpt: as §2, §3, §4, §5, §6

In assay [2] the test system is PANC08.13 cells (homozygous KRAS-G12D activating mutation). The assay is described as follows: Cellular phospho-ERK assay in G12D cell line. The assay is classed as cell-based. The conditions noted are these: Homo sapiens, PANC-08-13, 2 hours compound incubation, ratio of p-ERK vs. total ERK, read-out: PANC 0813 pERK IC50. Summed up: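 Cells (10,000-15,000/well) were seeded overnight, then treated for 2 h at 37 °C with a 10-point 1:3 titration from 30 μM final. Lysates were assayed by AlphaLISA SureFire Ultra multiplex, with the p-ERK/total-ERK ratio as read-out; IC50 came from a 4-parameter logistic fit.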

Assay [3] deals with SW620 cells (homozygous KRAS-G12V activating mutation). The assay is described as follows: Cellular phospho-ERK assay in G12V cell line. The conditions noted are these: Homo sapiens, SW-620, 2 hours compound incubation, ratio of p-ERK vs. total ERK, read-out: SW620 pERK IC50. The assay is classed as cell-based. On the procedure: Procedure for Cellular Phospho-ERK Assay in G12D and G12V Cell Lines
PANC08.13 cells (ATCC® CRL-2551™), containing homozygous KRAS-G12D activating mutation, were cultured in growth medium made of RPMI1640-GlutaMAX™—I (ThermoFisher Scientific 61870) containing 15% heat inactivated fetal bovine serum (ThermoFisher Scientific 10091148)). SW620 cells (ATCC® […]), containing homozygous KRAS-G12V activating mutation, were cultured in growth medium that contains RPMI 1640-GlutaMAX™—I (ThermoFisher Scientific 61870) containing 10% heat inactivated fetal bovine serum (ThermoFisher Scientific 10091148).
Cells for the assay were harvested in growth medium after TrypLE (ThermoFisher scientific 12604021) digestion and were seeded in a 384-well collagen coated cell culture plate (Corning 356702) at a density of 10,000-15,000 cells/20 uL/well, and incubated at 37° C., 5% CO2 overnight. The compound (with 10 mM stock concentration) dose-response titrations were prepared [30 μM final ERK detection assay concentration and 1:3 dilutions, 10-point dose response] and appropriate amounts (270 nL) of test compounds were dispensed in a 384-well intermediate plate using an Echo 550 liquid handler. 30 uL/well of RPMI medium 1640-GlutaMAX™—I was added to the intermediate plate and the contents of the intermediate plate (10 uL/well) were then transferred to the 384-well collagen coated cell culture plate, which was incubated at 37° C., 5% CO2 for 2 hours. After removal of medium from the collagen coated cell culture plate, cells were lysed in lysis buffer from Alpha SureFire® Ultra™ Multiplex p-ERK and total ERK assay kit (PerkinElmer MPSU-PTERK) containing Halt™ Protease and Phosphatase inhibitor cocktail (ThermoFisher Scientific 78446) at room temperature with constant shaking at 300 rpm for 30 minutes. The cell lysates were then transferred to an OptiPlate-384 plate (PerkinElmer 6005620), and the phosphorylation of ERK (p-ERK) and total ERK levels were detected by Alpha SureFire® Ultra™ Multiplex p-EEK kit and total ERK assay kit (PerkinElmer MPSU-PTERK) following the manufacturer's protocol. Assay plates were read on a EnVision Multimode Plate Reader (PerkinElmer), and the ratio of p-ERK vs. total ERK in each well was used as the final readout. Dose response curves were analyzed using a 4-parameter logistic model to calculate IC50 values using Spotfire software.

Sequence of NRAS (P01111 with tags, fused parts or gaps): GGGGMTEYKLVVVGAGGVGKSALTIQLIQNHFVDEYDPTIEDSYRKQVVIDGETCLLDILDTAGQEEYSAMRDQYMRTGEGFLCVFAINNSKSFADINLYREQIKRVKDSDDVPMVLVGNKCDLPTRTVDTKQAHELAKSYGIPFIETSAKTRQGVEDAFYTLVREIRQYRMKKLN
Sequence of HRAS (P01112 with tags, fused parts or gaps): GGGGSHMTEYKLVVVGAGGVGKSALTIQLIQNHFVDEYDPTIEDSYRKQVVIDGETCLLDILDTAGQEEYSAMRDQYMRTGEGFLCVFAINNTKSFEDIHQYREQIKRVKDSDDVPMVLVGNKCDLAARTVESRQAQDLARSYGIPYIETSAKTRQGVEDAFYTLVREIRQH
T1 sequence (P01116 with tags, fused parts or gaps isoform P01116-2 G12C/C51S/C80L/C118S): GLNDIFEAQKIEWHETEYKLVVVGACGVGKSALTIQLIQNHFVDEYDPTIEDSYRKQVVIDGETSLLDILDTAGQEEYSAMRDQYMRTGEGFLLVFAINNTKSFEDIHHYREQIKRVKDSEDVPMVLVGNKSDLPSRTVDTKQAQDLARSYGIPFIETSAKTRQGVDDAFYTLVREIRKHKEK
T3 sequence (P01116 with tags, fused parts or gaps isoform P01116-2 G12V): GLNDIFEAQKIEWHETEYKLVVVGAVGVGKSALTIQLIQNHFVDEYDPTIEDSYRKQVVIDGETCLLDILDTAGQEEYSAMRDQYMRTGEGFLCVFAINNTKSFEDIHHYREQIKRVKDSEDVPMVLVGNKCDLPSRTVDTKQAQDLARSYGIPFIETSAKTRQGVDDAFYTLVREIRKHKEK

As to `C[C@H]1CCOCCN1c1nc(OC[C@@]23CCCN2C[C@H](F)C3)nc2c(F)c(-c3ccc(F)c4sc(N)c(C#N)c34)c(Cl)cc12` [Ex. 6, 2-amino-4-(6-chloro-8-fluoro-2-(((2R,7aS)-2-fluorotetrahydro-1H-pyrrolizin-7a(5H)-yl)methoxy)-4-((S)-5-methyl-1,4-oxazepan-4-yl)quinazolin-7-yl)-7-fluorobenzo[b]thio-phene-3-carbonitrile], the half-maximal inhibitory concentration (IC50) in assay [1] amounted to 9.16 nM; on KRAS-G12D, 3.78 nM; at KRAS-G12V it was 3.15 nM; at KRAS-G13D, 2.4 nM; at HRAS, 2190 nM; on NRAS it was 9490 nM. Besides, the concentration for half-maximal inhibition (IC50) in assay [2] came to 33.9 nM; in assay [3] it was 18.8 nM.
With `CC1CN(c2nc(OC[C@@]34CCCN3C[C@H](F)C4)nc3c(F)c(-c4ccc(F)c5sc(N)c(C#N)c45)c(Cl)cc23)CCCO1` (stereo partly drawn) [compound 9, 2-amino-4-(6-chloro-8-fluoro-2-(((2R,7aS)-2-fluorotetrahydro-1H-pyrrolizin-7a(5H)-yl)methoxy)-4-(2-methyl-1,4-oxazepan-4-yl)quinazolin-7-yl)-7-fluorobenzo[b]thio-phene-3-carbonitrile], the half-maximal inhibitory concentration (IC50) was 23.1 nM in assay [1]; 24.4 nM at KRAS-G12D; 6.17 nM at KRAS-G12V; 8.74 nM on KRAS-G13D; > 11100 nM on HRAS; > 11100 nM on NRAS. The half-maximal inhibitory concentration (IC50) in assay [2] is 155 nM; in assay [3] it was 101 nM.
As to `C[C@H]1CCCCCN1c1nc(OC[C@@]23CCCN2C[C@H](F)C3)nc2c(F)c(-c3ccc(F)c4sc(N)c(C#N)c34)c(Cl)cc12` [Ex. 3, 2-amino-4-(6-chloro-8-fluoro-2-(((2R,7aS)-2-fluorotetrahydro-1H-pyrrolizin-7a(5H)-yl)methoxy)-4-((S)-2-methylazepan-1-yl)quinazolin-7-yl)-7-fluorobenzo[b]thio-phene-3-carbonitrile], the IC50 in assay [1] is 30.9 nM; at KRAS-G12D, 113 nM; on KRAS-G12V it was 40.3 nM; on KRAS-G13D it was 54.6 nM; on HRAS, > 11100 nM; on NRAS, > 11100 nM. Further, the figures for the half-maximal inhibitory concentration (IC50) in assay [2] and in assay [3] were 776 nM and 806 nM, respectively.
`CC1(NC[C@@]2(COc3nc(N4CCCOCC4)c4cc(Cl)c(-c5ccc(F)c6sc(N)c(C#N)c56)c(F)c4n3)CC2(F)F)CCC1` [compound 28, 2-amino-4-(6-chloro-2-(((R)-2,2-difluoro-1-(((1-methylcyclobutyl)ami-no)methyl)cyclopropyl)methoxy)-8-fluoro-4-(1,4-oxazepan-4-yl)quinazolin-7-yl)-7-fluorobenzo[b]thiophene-3-carbonitrile]: the IC50 in assay [1] was 78.2 nM; at KRAS-G12D, 1850 nM; at KRAS-G12V, 99.5 nM; on KRAS-G13D it was 255 nM; at HRAS, > 11100 nM; on NRAS it was > 11100 nM. In addition, the IC50 is 2420 nM in assay [2] and 867 nM in assay [3].
For `C[C@@H]1CCCCCN1c1nc(OC[C@@]23CCCN2C[C@H](F)C3)nc2c(F)c(-c3ccc(F)c4sc(N)c(C#N)c34)c(Cl)cc12` [Ex. 2, 2-amino-4-(6-chloro-8-fluoro-2-(((2R,7aS)-2-fluorotetrahydro-1H-pyrrolizin-7a(5H)-yl)methoxy)-4-((R)-2-methylazepan-1-yl)quinazolin-7-yl)-7-fluorobenzo[b]thio-phene-3-carbonitrile], the 50% inhibitory concentration (IC50) at KRAS-G12D amounted to 8.61 nM; on KRAS-G12V, 13.2 nM; in assay [2] it was 372 nM; in assay [3], 408 nM.
For `N#Cc1c(N)sc2c(F)ccc(-c3c(Cl)cc4c(N5CCCCCC5)nc(OC[C@@]56CCCN5C[C@H](F)C6)nc4c3F)c12` [Ex. 1, 2-amino-4-(4-(azepan-1-yl)-6-chloro-8-fluoro-2-(((2R,7aS)-2-fluorotetrahydro-1H-pyrrolizin-7a(5H)-yl)methoxy)quinazolin-7-yl)-7-fluorobenzo[b]thiophene-3-carbonitrile], the IC50 on HRAS is > 11100 nM; on NRAS, > 11100 nM; in assay [2], 68.8 nM; in assay [3], 74.5 nM.
